PubChem BioAssay (NCI)
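Test compounds were applied to cells in 96-well plates for 48 hours at 5 doses. Definition used: TGI = concentration required for complete inhibition of growth.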

Columns and labels:
Assay in all cases: DTP human tumour cell line panel, 48 h
[1] = tested on: BT-549 breast
[2] = tested on: HT29 colon
[3] = tested on: TK-10 renal
[4] = tested on: HCC-2998 colon
[5] = tested on: MDA-N
[6] = tested on: NCI/ADR-RES ovarian
[7] = tested on: UACC-257 melanoma
[8] = tested on: SW-620 colon
[9] = tested on: SK-MEL-2 melanoma
[10] = tested on: SNB-19 CNS
[11] = tested on: KM12 colon
[12] = tested on: DU-145 prostate
[13] = tested on: CCRF-CEM leukemia
[14] = tested on: M14 melanoma
[15] = tested on: OVCAR-5 ovarian
[16] = tested on: HCT-116 colon
[17] = tested on: RXF 393 renal
[18] = tested on: 786-0 renal
[19] = tested on: SN12C renal
[20] = tested on: LOX IMVI melanoma
[21] = tested on: SK-MEL-28 melanoma
[22] = tested on: CAKI-1 renal
[23] = tested on: SF-268 CNS
[24] = tested on: HOP-62 NSCLC
[25] = tested on: U251 CNS
[26] = tested on: SNB-75 CNS
[27] = tested on: ACHN renal
[28] = tested on: PC-3 prostate
[29] = tested on: A498 renal
[30] = tested on: MDA-MB-231 breast
[31] = tested on: EKVX NSCLC
[32] = tested on: K-562 leukemia
[33] = tested on: SK-MEL-5 melanoma
[34] = tested on: NCI-H460 lung
[35] = tested on: UO-31 renal
[36] = tested on: MALME-3M melanoma
[37] = tested on: NCI-H522 lung
[38] = tested on: SF-539 CNS
[39] = tested on: HCT-15 colon
[40] = tested on: SR leukemia
[41] = tested on: MDA-MB-435
[42] = tested on: SF-295 CNS
[43] = tested on: NCI-H226 lung
[44] = tested on: NCI-H23 lung
[45] = tested on: OVCAR-8 ovarian
[46] = tested on: T-47D breast
[47] = tested on: OVCAR-4 ovarian
[48] = tested on: RPMI-8226 leukemia
[49] = tested on: SK-OV-3 ovarian
[50] = tested on: MCF7 breast
[51] = tested on: IGROV1 ovarian
[52] = tested on: MOLT-4 leukemia
[53] = tested on: A549 NSCLC
[54] = tested on: UACC-62 melanoma
[55] = tested on: COLO 205 colon
[56] = tested on: HS 578T breast
[57] = tested on: OVCAR-3 ovarian
[58] = tested on: HL-60(TB) leukemia
[59] = tested on: HOP-92 NSCLC

Measured: TGI

C=C(C)[C@@H]1C[C@H]2O[C@](O)(C(=C)CC(=O)/C=C(/C)C[C@@H]3OC(=O)[C@]24O[C@@H]34)[C@H]1O
not listed: [56] | [57] | [58] | [59]
> 100 µM: all other assays above

COc1cccc(/C(CC(O)(C(F)(F)F)C(F)(F)F)=N\N(C)C)c1
not listed: [1] | [7] | [45] | [50]
> 100 µM: all other assays above
